The targets below were run with NC(=O)CCCCC1CCSS1 [lipoamide] (assay: thermal stability z-score vs DMSO; higher = more thermally stabilized by treatment). Conditions: HeLa; lipoamide concentration 100 µM; arsenate co-treatment: none.
Experimental: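 Cellular thermal proteome profiling in HeLa cells. Cells were treated with 100 µM lipoamide for 1 h, with or without 1 mM arsenate for a further 1 h, then heated to ten temperatures (37-66.3 °C), and soluble protein was quantified by TMT mass spectrometry relative to 0.1% DMSO controls. The thermal stability score (sum of log2 fold changes minus the abundance score) was transformed to a z-score; mean of n = 3 experiments.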
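Also: each temperature applied for 3 min, abundance score taken as mean log2 fold change at the two lowest temperatures, z-score obtained by mean subtraction and division by SD.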

UniProt O43617, sequence (O43617 whole entry): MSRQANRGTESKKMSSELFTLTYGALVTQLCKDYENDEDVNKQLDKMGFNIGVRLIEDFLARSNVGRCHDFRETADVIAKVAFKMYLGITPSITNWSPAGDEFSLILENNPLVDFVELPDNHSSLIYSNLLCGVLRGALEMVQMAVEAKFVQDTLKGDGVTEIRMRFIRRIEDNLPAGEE
UniProt Q96F44, sequence (Q96F44 whole entry): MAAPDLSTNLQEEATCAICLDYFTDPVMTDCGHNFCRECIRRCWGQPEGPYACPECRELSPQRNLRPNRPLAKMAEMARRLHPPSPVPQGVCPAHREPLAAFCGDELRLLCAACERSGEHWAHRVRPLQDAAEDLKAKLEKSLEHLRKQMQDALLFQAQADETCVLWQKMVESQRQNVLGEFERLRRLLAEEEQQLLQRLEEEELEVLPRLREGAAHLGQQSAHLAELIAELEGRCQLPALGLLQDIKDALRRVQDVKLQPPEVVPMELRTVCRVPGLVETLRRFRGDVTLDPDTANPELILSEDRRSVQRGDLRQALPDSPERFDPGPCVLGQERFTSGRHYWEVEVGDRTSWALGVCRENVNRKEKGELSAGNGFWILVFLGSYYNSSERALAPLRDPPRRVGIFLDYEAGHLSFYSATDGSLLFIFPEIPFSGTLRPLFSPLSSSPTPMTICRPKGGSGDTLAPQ
UniProt P78344, sequence (P78344 whole entry): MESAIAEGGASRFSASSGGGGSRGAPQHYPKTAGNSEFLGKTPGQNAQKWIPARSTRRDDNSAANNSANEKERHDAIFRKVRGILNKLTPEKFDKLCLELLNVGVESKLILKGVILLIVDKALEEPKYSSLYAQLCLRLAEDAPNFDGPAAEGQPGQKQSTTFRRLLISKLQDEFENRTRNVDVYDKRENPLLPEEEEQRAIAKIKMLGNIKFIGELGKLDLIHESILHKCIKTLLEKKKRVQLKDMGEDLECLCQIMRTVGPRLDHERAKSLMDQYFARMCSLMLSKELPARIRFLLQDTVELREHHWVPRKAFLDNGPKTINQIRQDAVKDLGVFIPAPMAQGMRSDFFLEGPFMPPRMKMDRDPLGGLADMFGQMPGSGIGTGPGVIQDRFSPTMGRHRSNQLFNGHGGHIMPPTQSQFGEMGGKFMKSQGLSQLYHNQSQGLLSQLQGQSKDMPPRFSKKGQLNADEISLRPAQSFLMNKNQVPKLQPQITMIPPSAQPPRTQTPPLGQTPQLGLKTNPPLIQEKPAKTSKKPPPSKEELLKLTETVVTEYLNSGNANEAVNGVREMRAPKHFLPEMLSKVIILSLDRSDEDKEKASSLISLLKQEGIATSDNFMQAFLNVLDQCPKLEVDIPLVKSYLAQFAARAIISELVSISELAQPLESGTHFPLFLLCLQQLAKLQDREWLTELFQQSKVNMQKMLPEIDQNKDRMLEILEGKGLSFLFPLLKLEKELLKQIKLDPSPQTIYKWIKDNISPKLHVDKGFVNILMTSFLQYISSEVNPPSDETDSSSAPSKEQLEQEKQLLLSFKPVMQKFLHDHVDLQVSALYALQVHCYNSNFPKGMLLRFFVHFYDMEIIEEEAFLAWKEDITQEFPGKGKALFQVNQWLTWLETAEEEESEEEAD
UniProt Q9ULT8, sequence (Q9ULT8 whole entry): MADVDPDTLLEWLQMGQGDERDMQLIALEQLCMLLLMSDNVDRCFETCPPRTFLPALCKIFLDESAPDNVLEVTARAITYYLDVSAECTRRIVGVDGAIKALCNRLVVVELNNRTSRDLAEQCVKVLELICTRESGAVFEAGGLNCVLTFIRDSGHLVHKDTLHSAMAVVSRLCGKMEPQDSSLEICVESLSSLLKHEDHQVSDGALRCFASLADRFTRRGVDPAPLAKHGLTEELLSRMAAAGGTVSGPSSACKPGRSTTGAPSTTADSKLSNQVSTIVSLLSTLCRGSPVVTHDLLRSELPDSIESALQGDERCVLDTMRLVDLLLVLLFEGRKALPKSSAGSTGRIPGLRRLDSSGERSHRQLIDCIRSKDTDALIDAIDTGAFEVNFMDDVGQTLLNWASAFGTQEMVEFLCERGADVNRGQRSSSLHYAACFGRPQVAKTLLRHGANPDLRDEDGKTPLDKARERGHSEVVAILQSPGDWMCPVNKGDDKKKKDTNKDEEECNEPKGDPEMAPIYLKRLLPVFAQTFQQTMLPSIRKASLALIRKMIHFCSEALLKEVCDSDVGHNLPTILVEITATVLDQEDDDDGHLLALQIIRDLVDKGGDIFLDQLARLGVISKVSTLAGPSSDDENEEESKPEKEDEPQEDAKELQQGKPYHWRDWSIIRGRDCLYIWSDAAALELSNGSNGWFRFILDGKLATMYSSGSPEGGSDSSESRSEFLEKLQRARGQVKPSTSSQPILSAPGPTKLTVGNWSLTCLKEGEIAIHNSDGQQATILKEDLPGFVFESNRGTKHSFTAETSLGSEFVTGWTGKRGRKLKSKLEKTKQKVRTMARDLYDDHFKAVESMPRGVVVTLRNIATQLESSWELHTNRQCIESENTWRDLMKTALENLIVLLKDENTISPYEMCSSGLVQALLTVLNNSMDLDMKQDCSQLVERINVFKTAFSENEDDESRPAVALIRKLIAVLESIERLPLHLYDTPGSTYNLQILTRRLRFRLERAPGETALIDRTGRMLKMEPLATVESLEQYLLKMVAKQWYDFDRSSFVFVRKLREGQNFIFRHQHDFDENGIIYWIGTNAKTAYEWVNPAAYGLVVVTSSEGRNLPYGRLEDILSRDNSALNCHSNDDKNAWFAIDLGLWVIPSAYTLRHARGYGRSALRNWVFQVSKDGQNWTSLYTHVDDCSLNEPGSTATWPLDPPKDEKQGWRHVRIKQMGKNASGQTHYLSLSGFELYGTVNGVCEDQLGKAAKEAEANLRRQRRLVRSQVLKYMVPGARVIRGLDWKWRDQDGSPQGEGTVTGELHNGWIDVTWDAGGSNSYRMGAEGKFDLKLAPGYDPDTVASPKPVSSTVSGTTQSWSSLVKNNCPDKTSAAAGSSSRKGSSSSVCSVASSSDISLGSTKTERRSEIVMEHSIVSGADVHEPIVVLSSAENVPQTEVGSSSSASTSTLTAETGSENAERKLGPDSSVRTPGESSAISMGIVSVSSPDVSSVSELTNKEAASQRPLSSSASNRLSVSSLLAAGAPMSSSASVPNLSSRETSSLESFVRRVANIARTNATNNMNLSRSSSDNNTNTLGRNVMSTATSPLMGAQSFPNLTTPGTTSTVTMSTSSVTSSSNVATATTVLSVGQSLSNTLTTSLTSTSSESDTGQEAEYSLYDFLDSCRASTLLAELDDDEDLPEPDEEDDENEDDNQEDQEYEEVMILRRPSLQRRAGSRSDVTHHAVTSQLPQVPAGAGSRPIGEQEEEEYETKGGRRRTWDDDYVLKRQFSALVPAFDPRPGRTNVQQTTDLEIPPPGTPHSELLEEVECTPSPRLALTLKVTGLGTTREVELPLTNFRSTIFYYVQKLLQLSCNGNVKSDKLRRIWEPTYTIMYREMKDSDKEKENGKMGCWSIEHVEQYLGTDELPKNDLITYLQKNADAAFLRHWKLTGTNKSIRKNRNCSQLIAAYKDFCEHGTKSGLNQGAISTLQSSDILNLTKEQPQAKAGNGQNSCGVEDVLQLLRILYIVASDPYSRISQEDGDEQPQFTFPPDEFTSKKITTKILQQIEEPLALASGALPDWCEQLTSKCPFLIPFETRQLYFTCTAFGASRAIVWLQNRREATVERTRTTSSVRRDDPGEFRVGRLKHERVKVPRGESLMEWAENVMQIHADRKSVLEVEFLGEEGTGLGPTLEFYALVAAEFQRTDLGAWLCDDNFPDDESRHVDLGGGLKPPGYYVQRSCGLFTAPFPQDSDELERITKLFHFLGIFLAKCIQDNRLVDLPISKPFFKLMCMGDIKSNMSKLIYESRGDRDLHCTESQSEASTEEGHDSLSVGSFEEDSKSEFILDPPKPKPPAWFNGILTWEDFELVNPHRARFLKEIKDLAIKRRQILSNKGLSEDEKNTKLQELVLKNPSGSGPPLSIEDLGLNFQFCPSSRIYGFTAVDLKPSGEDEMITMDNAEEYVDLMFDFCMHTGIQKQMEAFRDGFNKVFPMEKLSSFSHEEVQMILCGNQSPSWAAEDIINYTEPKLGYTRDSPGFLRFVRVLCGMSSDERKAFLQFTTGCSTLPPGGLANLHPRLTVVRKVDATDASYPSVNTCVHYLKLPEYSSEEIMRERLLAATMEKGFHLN
UniProt O75439, sequence (O75439 whole entry): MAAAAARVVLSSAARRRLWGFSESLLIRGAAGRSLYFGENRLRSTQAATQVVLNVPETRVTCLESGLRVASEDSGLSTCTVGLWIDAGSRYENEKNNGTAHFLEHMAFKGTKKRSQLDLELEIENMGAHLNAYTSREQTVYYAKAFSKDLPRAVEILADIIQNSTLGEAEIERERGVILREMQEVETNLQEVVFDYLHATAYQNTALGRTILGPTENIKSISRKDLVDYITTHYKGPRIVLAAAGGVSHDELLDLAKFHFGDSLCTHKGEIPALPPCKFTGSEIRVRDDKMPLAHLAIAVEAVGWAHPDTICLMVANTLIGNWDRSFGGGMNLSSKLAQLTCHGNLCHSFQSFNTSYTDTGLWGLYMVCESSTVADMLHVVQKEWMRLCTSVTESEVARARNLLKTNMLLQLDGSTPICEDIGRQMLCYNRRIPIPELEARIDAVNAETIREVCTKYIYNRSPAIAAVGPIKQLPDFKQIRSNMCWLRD
UniProt Q9NRG0, sequence (Q9NRG0 whole entry): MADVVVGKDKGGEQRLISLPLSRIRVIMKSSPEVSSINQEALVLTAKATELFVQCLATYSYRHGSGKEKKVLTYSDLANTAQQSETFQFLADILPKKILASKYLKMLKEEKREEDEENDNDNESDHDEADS
UniProt Q8WW01, sequence (Q8WW01 whole entry): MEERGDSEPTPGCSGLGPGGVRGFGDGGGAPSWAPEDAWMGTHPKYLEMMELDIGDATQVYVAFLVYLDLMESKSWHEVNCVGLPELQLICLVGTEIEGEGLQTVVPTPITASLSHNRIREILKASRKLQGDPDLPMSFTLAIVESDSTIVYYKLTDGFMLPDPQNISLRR
UniProt Q9NPE3, sequence (Q9NPE3 whole entry): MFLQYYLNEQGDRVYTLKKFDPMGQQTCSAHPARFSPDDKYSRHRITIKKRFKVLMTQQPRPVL

| Target | thermal stability z-score |
| --- | --- |
| CNNM3 (UniProt Q8NE01) | 0.192 |
| PHLDB2 (UniProt Q86SQ0) | -0.89 |
| RPL14 (UniProt P50914) | 0.492 |
| NARF (UniProt Q9UHQ1) | -0.133 |
| CHRAC1 (UniProt Q9NRG0) | 0.285 |
| CTSA (UniProt P10619) | -0.283 |
| MOGS (UniProt Q13724) | -0.979 |
| DBR1 (UniProt Q9UK59) | -0.174 |
| NPTN (UniProt Q9Y639) | -0.0241 |
| RNF213 (UniProt Q63HN8) | -0.111 |
| PMPCB (UniProt O75439) | 0.207 |
| SPECC1 (UniProt Q5M775) | 0.504 |
| TSEN15 (UniProt Q8WW01) | -0.0314 |
| PTEN (UniProt P60484) | -0.0591 |
| CABLES1 (UniProt Q8TDN4) | 0.218 |
| ALDH4A1 (UniProt P30038) | -0.14 |
| TRAPPC3 (UniProt O43617) | -0.0881 |
| PPP3CA (UniProt Q08209) | 0.912 |
| EIF4G2 (UniProt P78344) | 0.548 |
| TRIM11 (UniProt Q96F44) | -1.71 |
| RPS9 (UniProt P46781) | 0.125 |
| MYPN (UniProt Q86TC9) | 0.447 |
| PXDN (UniProt Q92626) | -1.61 |
| HECTD1 (UniProt Q9ULT8) | -0.164 |
| FBXO4 (UniProt Q9UKT5) | 0.534 |
| PRMT3 (UniProt O60678) | 0.22 |
| AP5Z1 (UniProt O43299) | 0.822 |
| NOL6 (UniProt Q9H6R4) | -0.0357 |

What follows are targets tested with O=[As]([O-])(O)O.[K+] [potassium arsenate] in the same assay as above. Conditions: HeLa; arsenate concentration 1 mM.
Experimental: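 Cellular thermal proteome profiling in HeLa cells treated with 1 mM arsenate for 1 h (DMSO pretreatment), heated to ten temperatures (37-66.3 °C). Soluble protein was quantified by TMT mass spectrometry relative to DMSO controls; the thermal stability score was transformed to a z-score; mean of n = 3 experiments.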

| Target | thermal stability z-score |
| --- | --- |
| TOMM20 (UniProt Q15388) | 1.73 |
| HDGF (UniProt P51858) | 0.19 |
| ACSF3 (UniProt Q4G176) | 0.298 |
| CDC45 (UniProt O75419) | -0.457 |
| SMC1A (UniProt Q14683) | -0.186 |
| SLC4A7 (UniProt Q9Y6M7) | -0.747 |
| BCCIP (UniProt Q9P287) | -0.181 |
| NOP10 (UniProt Q9NPE3) | 0.522 |
| RAB31 (UniProt Q13636) | 0.42 |
| CHORDC1 (UniProt Q9UHD1) | -0.23 |
| MATR3 (UniProt P43243) | -1.69 |
| SYAP1 (UniProt Q96A49) | 0.679 |
| PLEKHB2 (UniProt Q96CS7) | 0.675 |
| BET1 (UniProt O15155) | 1.11 |
| LYPLAL1 (UniProt Q5VWZ2) | 0.447 |
| PGD (UniProt P52209) | 0.259 |
| GLUD1 (UniProt P00367) | -0.578 |
| TRAF4 (UniProt Q9BUZ4) | -4.33 |
| MBTPS1 (UniProt Q14703) | -0.822 |
| COMMD1 (UniProt Q8N668) | -0.333 |
| AP1S1 (UniProt P61966) | 0.802 |
| CYB5R1 (UniProt Q9UHQ9) | -2.32 |
| CLASP2 (UniProt O75122) | 0.0564 |
| NFKB1 (UniProt P19838) | -0.274 |
| ZDHHC13 (UniProt Q8IUH4) | 0.144 |
| ZFP91 (UniProt Q96JP5) | -0.352 |
| MRPL22 (UniProt Q9NWU5) | 0.467 |
| CNNM3 (UniProt Q8NE01) | -0.561 |

| Target | thermal stability z-score |
| --- | --- |
| PHLDB2 (UniProt Q86SQ0) | -0.277 |
| RPL14 (UniProt P50914) | -1.08 |
| NARF (UniProt Q9UHQ1) | -0.0435 |
| CHRAC1 (UniProt Q9NRG0) | -0.28 |
| CTSA (UniProt P10619) | -0.0364 |
| MOGS (UniProt Q13724) | 0.158 |
| DBR1 (UniProt Q9UK59) | 0.5 |
| NPTN (UniProt Q9Y639) | 0.798 |
| RNF213 (UniProt Q63HN8) | -0.0363 |
| PMPCB (UniProt O75439) | 0.353 |
| SPECC1 (UniProt Q5M775) | 1.48 |
| TSEN15 (UniProt Q8WW01) | 0.473 |
| PTEN (UniProt P60484) | -0.185 |
| CABLES1 (UniProt Q8TDN4) | -0.0215 |
| ALDH4A1 (UniProt P30038) | 1.19 |
| TRAPPC3 (UniProt O43617) | 0.422 |
| PPP3CA (UniProt Q08209) | 0.275 |
| EIF4G2 (UniProt P78344) | 0.233 |
| TRIM11 (UniProt Q96F44) | -1.05 |
| RPS9 (UniProt P46781) | -1.03 |
| MYPN (UniProt Q86TC9) | 0.803 |
| PXDN (UniProt Q92626) | 0.0514 |
| HECTD1 (UniProt Q9ULT8) | 0.641 |
| FBXO4 (UniProt Q9UKT5) | -0.473 |
| PRMT3 (UniProt O60678) | -0.148 |
| AP5Z1 (UniProt O43299) | 0.502 |
| NOL6 (UniProt Q9H6R4) | -0.592 |

— the supplement of paper PMC12463676, “Small-molecule dissolution of stress granules by redox modulation benefits ALS models” (Nature Chemical Biology, 2025)
